Experiment: xn = mol fraction of the nth substance listed
Conditions: Liquid

CCCCO [butan-1-ol] + O=C=O
Conditions	mass density [kg/m3]
313.1 K, 1008 kPa, x2 = 0.0251	798.08
313.1 K, 2011 kPa, x2 = 0.0251	798.9
313.1 K, 3006 kPa, x2 = 0.0251	799.7
313.1 K, 4012 kPa, x2 = 0.0251	800.54
313.1 K, 5008 kPa, x2 = 0.0251	801.32
313.1 K, 6013 kPa, x2 = 0.0251	802.14
313.1 K, 7004 kPa, x2 = 0.0251	802.94
313.1 K, 8023 kPa, x2 = 0.0251	803.75
313.1 K, 9037 kPa, x2 = 0.0251	804.53
313.1 K, 9990 kPa, x2 = 0.9698	711.97
313.1 K, 10005 kPa, x2 = 0.0251	805.29
313.1 K, 11011 kPa, x2 = 0.0251	806.08
313.1 K, 11014 kPa, x2 = 0.9698	740.16
313.1 K, 12018 kPa, x2 = 0.0251	806.83
313.1 K, 12040 kPa, x2 = 0.9698	761.46
313.1 K, 12987 kPa, x2 = 0.9698	777.57
313.1 K, 13003 kPa, x2 = 0.0251	807.56
313.1 K, 14007 kPa, x2 = 0.0251	808.31
313.1 K, 14020 kPa, x2 = 0.9698	792.52
313.1 K, 15009 kPa, x2 = 0.0251	809.03
313.1 K, 15028 kPa, x2 = 0.9698	805.22
313.1 K, 16004 kPa, x2 = 0.0251	809.77
313.1 K, 16029 kPa, x2 = 0.9698	816.46
313.1 K, 17000 kPa, x2 = 0.9698	826.34
313.1 K, 17005 kPa, x2 = 0.0251	810.49
313.1 K, 18019 kPa, x2 = 0.0251	811.19
313.1 K, 18024 kPa, x2 = 0.9698	835.89
313.1 K, 19019 kPa, x2 = 0.0251	811.89
313.1 K, 19027 kPa, x2 = 0.9698	844.46
313.1 K, 20020 kPa, x2 = 0.0251	812.59
313.1 K, 20021 kPa, x2 = 0.9698	852.41
313.1 K, 21013 kPa, x2 = 0.9698	859.87
313.1 K, 21027 kPa, x2 = 0.0251	813.29
313.1 K, 22005 kPa, x2 = 0.0251	813.97
313.1 K, 22032 kPa, x2 = 0.9698	867.02
313.1 K, 23006 kPa, x2 = 0.9698	873.5
313.1 K, 23011 kPa, x2 = 0.0251	814.69
313.1 K, 24004 kPa, x2 = 0.0251	815.36
313.1 K, 24011 kPa, x2 = 0.9698	879.83
313.1 K, 25028 kPa, x2 = 0.0251	816.1
313.11 K, 1990 kPa, x2 = 0.0857	802.76
313.11 K, 3001 kPa, x2 = 0.0857	803.63
313.11 K, 4009 kPa, x2 = 0.0857	804.54
313.11 K, 5013 kPa, x2 = 0.0857	805.41
313.11 K, 6014 kPa, x2 = 0.0857	806.27
313.11 K, 7009 kPa, x2 = 0.0857	807.15
313.11 K, 8011 kPa, x2 = 0.0857	807.98
313.11 K, 9009 kPa, x2 = 0.0857	808.79
313.11 K, 10011 kPa, x2 = 0.0857	809.65
313.11 K, 10994 kPa, x2 = 0.0857	810.46
313.11 K, 12007 kPa, x2 = 0.0857	811.26
313.11 K, 13022 kPa, x2 = 0.0857	812.06
313.11 K, 13999 kPa, x2 = 0.0857	812.83
313.11 K, 15014 kPa, x2 = 0.0857	813.63
313.11 K, 16013 kPa, x2 = 0.0857	814.38
313.11 K, 16994 kPa, x2 = 0.0857	815.12
313.11 K, 18005 kPa, x2 = 0.0857	815.89
313.11 K, 19008 kPa, x2 = 0.0857	816.61
313.11 K, 20010 kPa, x2 = 0.0857	817.4
313.11 K, 20990 kPa, x2 = 0.0857	818.09
313.11 K, 22028 kPa, x2 = 0.0857	818.85
313.11 K, 22900 kPa, x2 = 0.0857	819.47
313.11 K, 23996 kPa, x2 = 0.0857	820.3
313.11 K, 25047 kPa, x2 = 0.0857	821.11
313.15 K, 9101 kPa, x2 = 0.4972	830.36
313.15 K, 10085 kPa, x2 = 0.4972	831.83
313.15 K, 11056 kPa, x2 = 0.4972	833.28
313.15 K, 12062 kPa, x2 = 0.4972	834.75
313.15 K, 13043 kPa, x2 = 0.4972	836.14
313.15 K, 14050 kPa, x2 = 0.4972	837.54
313.15 K, 15053 kPa, x2 = 0.4972	838.9
313.15 K, 16037 kPa, x2 = 0.4972	840.22
313.15 K, 17055 kPa, x2 = 0.4972	841.56
313.15 K, 18037 kPa, x2 = 0.4972	842.85
313.15 K, 19023 kPa, x2 = 0.4972	844.11
313.15 K, 20041 kPa, x2 = 0.4972	845.39
313.15 K, 21003 kPa, x2 = 0.4972	846.61
313.15 K, 22068 kPa, x2 = 0.4972	847.91
313.15 K, 23079 kPa, x2 = 0.4972	849.14
313.15 K, 24016 kPa, x2 = 0.4972	850.27
313.15 K, 25033 kPa, x2 = 0.4972	851.48
313.16 K, 10073 kPa, x2 = 0.5965	836.7
313.16 K, 10087 kPa, x2 = 0.8663	805.12
313.16 K, 11059 kPa, x2 = 0.5965	838.66
313.16 K, 11082 kPa, x2 = 0.8663	813.86
313.16 K, 12061 kPa, x2 = 0.8663	821.6
313.16 K, 12075 kPa, x2 = 0.5965	840.6
313.16 K, 13043 kPa, x2 = 0.8663	828.71
313.16 K, 13069 kPa, x2 = 0.5965	842.49
313.16 K, 14076 kPa, x2 = 0.8663	835.52
313.16 K, 14098 kPa, x2 = 0.5965	844.39
313.16 K, 15059 kPa, x2 = 0.5965	846.11
313.16 K, 15061 kPa, x2 = 0.8663	841.57
313.16 K, 16037 kPa, x2 = 0.5965	847.81
313.16 K, 16043 kPa, x2 = 0.8663	847.15
313.16 K, 17032 kPa, x2 = 0.5965	849.52
313.16 K, 17052 kPa, x2 = 0.8663	852.59
313.16 K, 18048 kPa, x2 = 0.5965	851.21
313.16 K, 18056 kPa, x2 = 0.8663	857.69
313.16 K, 19039 kPa, x2 = 0.8663	862.42
313.16 K, 19055 kPa, x2 = 0.5965	852.88
313.16 K, 20027 kPa, x2 = 0.8663	866.99
313.16 K, 20044 kPa, x2 = 0.5965	854.46
313.16 K, 21042 kPa, x2 = 0.5965	856.04
313.16 K, 21068 kPa, x2 = 0.8663	871.52
313.16 K, 22034 kPa, x2 = 0.8663	875.6
313.16 K, 22053 kPa, x2 = 0.5965	857.62
313.16 K, 23031 kPa, x2 = 0.5965	859.12
313.16 K, 23061 kPa, x2 = 0.8663	879.74
313.16 K, 24038 kPa, x2 = 0.5965	860.62
313.16 K, 24054 kPa, x2 = 0.8663	883.63
313.16 K, 25015 kPa, x2 = 0.8663	887.21
313.16 K, 25036 kPa, x2 = 0.5965	862.12
323.05 K, 1017 kPa, x2 = 0.0251	789.88
323.05 K, 2015 kPa, x2 = 0.0251	790.73
323.05 K, 3003 kPa, x2 = 0.0251	791.59
323.05 K, 4007 kPa, x2 = 0.0251	792.48
323.05 K, 5026 kPa, x2 = 0.0251	793.33
323.05 K, 5975 kPa, x2 = 0.0251	794.14
323.05 K, 7085 kPa, x2 = 0.0251	795.08
323.05 K, 7991 kPa, x2 = 0.0251	795.85
323.05 K, 9003 kPa, x2 = 0.0251	796.68
323.05 K, 10032 kPa, x2 = 0.0251	797.56
323.05 K, 10996 kPa, x2 = 0.0251	798.32
323.05 K, 11029 kPa, x2 = 0.9698	630.03
323.05 K, 12005 kPa, x2 = 0.9698	671.01
323.05 K, 12028 kPa, x2 = 0.0251	799.15
323.05 K, 12996 kPa, x2 = 0.9698	700.08
323.05 K, 13030 kPa, x2 = 0.0251	799.93
323.05 K, 14024 kPa, x2 = 0.9698	723.36
323.05 K, 14030 kPa, x2 = 0.0251	800.72
323.05 K, 15018 kPa, x2 = 0.0251	801.45
323.05 K, 15024 kPa, x2 = 0.9698	741.89
323.05 K, 16009 kPa, x2 = 0.9698	757.4
323.05 K, 16017 kPa, x2 = 0.0251	802.24
323.05 K, 17001 kPa, x2 = 0.9698	771.14
323.05 K, 17014 kPa, x2 = 0.0251	802.97
323.05 K, 18016 kPa, x2 = 0.9698	783.62
323.05 K, 18025 kPa, x2 = 0.0251	803.71
323.05 K, 19020 kPa, x2 = 0.9698	794.82
323.05 K, 19034 kPa, x2 = 0.0251	804.49
323.05 K, 20048 kPa, x2 = 0.9698	805.21
323.05 K, 20052 kPa, x2 = 0.0251	805.21
323.05 K, 21014 kPa, x2 = 0.0251	805.95
323.05 K, 21055 kPa, x2 = 0.9698	814.54
323.05 K, 22017 kPa, x2 = 0.9698	822.92
323.05 K, 22027 kPa, x2 = 0.0251	806.68
323.05 K, 23002 kPa, x2 = 0.0251	807.38
323.05 K, 23087 kPa, x2 = 0.9698	831.58
323.05 K, 24035 kPa, x2 = 0.0251	808.13
323.05 K, 24055 kPa, x2 = 0.9698	838.92
323.05 K, 25023 kPa, x2 = 0.0251	808.84
323.07 K, 1981 kPa, x2 = 0.0857	794.04
323.07 K, 3013 kPa, x2 = 0.0857	795.05
323.07 K, 4009 kPa, x2 = 0.0857	795.99
323.07 K, 5021 kPa, x2 = 0.0857	796.91
323.07 K, 6010 kPa, x2 = 0.0857	797.83
323.07 K, 6995 kPa, x2 = 0.0857	798.74
323.07 K, 7985 kPa, x2 = 0.0857	799.59
323.07 K, 9047 kPa, x2 = 0.0857	800.55
323.07 K, 10028 kPa, x2 = 0.0857	801.4
323.07 K, 11003 kPa, x2 = 0.0857	802.22
323.07 K, 12005 kPa, x2 = 0.0857	803.07
323.07 K, 12995 kPa, x2 = 0.0857	803.91
323.07 K, 14273 kPa, x2 = 0.0857	805.01
323.07 K, 15019 kPa, x2 = 0.0857	805.58
323.07 K, 15998 kPa, x2 = 0.0857	806.41
